Measured values published in US11939588B2, “Elevated resistance to insects and plant pathogens without compromising seed production” (Board of Trustees of Michigan State University, priority 2019, dated 2024).

Legend:
Assay type in all cases: in vivo, Arabidopsis thaliana
[1] = system: WT, cdk8-1, jazD and jazD cdk8-1 seedlings; assay: Root length on medium with 5-methyl-tryptophan; settings: 0 or 15 μM 5-MT, 10-day-old, partially dependent on CDK8
Excerpt: FIG. 13A is a schematic of tryptophan biosynthesis from chorismate. Tryptophan feedback inhibits the activity of anthranilate synthase (AS). Although 5-methyl-tryptophan (5-MT) inhibits anthranilate synthase activity, it cannot be used for the production of proteins. The abbreviations used in FIG. 13A are: TRP, anthranilate phosphoribosyltransferase: PAI, phosphoribosylanthranilate isomerase; IGPS, indole-3-glycerol-phosphate synthase; TSA, tryptophan synthase alpha subunit: TSB, tryptophan synthase beta subunit. FIG. 13B graphically illustrates root length of WT, cdk8-1, jazD, and jazD cdk8-1 10-day-old seedlings grown on medium supplemented with 0 or 15 μM of 5-methyl-tryptophan (5-MT). Data shown are the mean±SD of at least 24 seedlings per genotype at each 5-MT concentration. Letters denote significant differences according to Tukey's HSD test (P<0.05).
FIG. 13B graphically illustrates root length of WT, cdk8-1, jazD, and jazD cdk8-1 10-day-old seedlings grown on medium supplemented with 0 or 15 μM of 5-methyl-tryptophan (5-MT). The data shown in FIG. 13B are the mean±SD of at least 24 seedlings per genotype at each 5-MT concentration, while the letters denote significant differences according to Tukey's HSD test (P<0.05).

[2] = system: leaves of wild type, jazQ and jazD plants; assay: Coronatine treatment of intact leaves; settings: 50 μM coronatine
Method: The eighth true leaf of 40-day-old plants grown under 12-hour-light/12-hour-dark conditions were spotted with 5 μL of sterile water (mock) or a solution containing 50 μM coronatine (Sigma-Aldrich, C8115) prepared in sterile water. Photographs were taken two and four days after treatment.

[3] = system: wild type Col-0 (WT), jazQ, jazD and jazU seedlings; assay: Root elongation assay with MeJA
Method: Seeds were surface sterilized with 50% (v/v) bleach for three min, washed 10 times with sterile water and stratified in dark at 4° C. for two days. Seedlings were grown on 0.7% (w/v) agar media containing half-strength Linsmaier and Skoog (LS; Caisson Labs) salts supplemented with 0.8% (w/v) sucrose and the indicated concentration of MeJA (Sigma-Aldrich). Each square Petri plate (Fisher; 100×100×15 mm) contained five seedlings per genotype. Plates were incubated vertically in a growth chamber maintained at 21° C. for eight days under 16-hour-light (80 μE m^−2s^−1)/8-hour-dark conditions. The length of primary roots was measured using ImageJ software (see website at imagej.nih.gov/ij/).

[4] = system: WT, jazQ and jazD seedlings; assay: Apical hook formation in ethylene-elicited (ACC-treated) seedlings; settings: jazD and jazQ seedlings compared with WT
Excerpt: FIGS. 3A-3F illustrates that jazD plants are highly resistant to insect herbivores and necrotrophic pathogens. […] Data shown are the mean±SD of at least 30 larvae per genotype. Capital letters denote significant differences according to Tukey's HSD test (P<0.05). FIG. 3C is a heat map displaying the expression level of various jasmonate/ethylene-responsive genes in leaves of jazQ and jazD normalized to wild type. ACT, agmatine coumaroyl transferase (accession no. At5g61160). […] FIG. 3E graphically illustrates disease lesion size on leaves of the indicated genotypes following 5 days of treatment with B. cinerea spores for the indicated plant lines. […] Capital letters denote significant differences (Tukey's HSD test, P<0.05). FIG. 3F graphically illustrates apical hook angles of seedlings grown in the presence of various concentrations of the ethylene precursor 1-aminocyclopropane-1-carboxylic acid (ACC). Data shown are the mean±SD of at least 21 seedlings per genotype. […]
In agreement with the RNA-seq data, jazQ plants were slightly more susceptible than wild type to the necrotrophic pathogen Botrytis cinerea, whereas jazD leaves were more resistant to the spread of disease lesions (FIG. […]). To determine whether jazQ and jazD differentially affect other ethylene responses, the inventors assessed apical hook formation in ethylene-elicited seedlings.

[5] = system: WT, jazQ and jazD seedlings; assay: Sucrose rescue assay (leaf biomass and root growth)
Method: The effect of exogenous sucrose on leaf biomass and root growth was determined by growing seedlings on square Petri plates (Greiner Bio-One; 120×120×17 mm). In order to control for variation in seed quality, seeds were sieved after drying with desiccant for two weeks (see above). After sterilization and washing, seeds were sown without stratification on 0.7% (w/v) agar media containing half-strength LS salts supplemented with sucrose or sorbitol. Each plate contained ten (for biomass) or five (for root growth) seeds of Col-0 and mutant lines. Plates were placed in the dark at 4° C. for four days and then incubated horizontally (for leaf biomass) or vertically (for root growth) in growth chambers maintained at 21° C. under 16 h at a light intensity of 80 μE m^−2 s^−1 and 8-hour dark. ImageJ was used to measure root length after 11 days. Plant biomass and projected leaf area were measured after 16 days.

Cc1ccc2[nH]cc(C[C@H](N)C(=O)O)c2c1 [5-MT, 5-methyl-tryptophan]
resistance to 5-MT (root length) [1]: increased resistance

CC[C@H]1C=C(C(=O)N[C@@]2(C(=O)O)C[C@@H]2CC)[C@H]2CCC(=O)[C@H]2C1 [coronatine]
sensitivity of jazD leaves to coronatine ([2]; jazD leaves, 2 or 4 days): hypersensitive
leaf response after COR application ([2]; jazD leaves, 4 days after treatment): near complete loss of chlorophyll and spreading of necrosis-like symptoms throughout the leaf
leaf response at the site of COR application ([2]; jazD leaves, within 2 days of treatment): visible chlorosis
chlorosis after COR application ([2]; wild type and jazQ leaves, within 4 days): no apparent signs of chlorosis
leaf response at the site of COR application ([2]; wild type and jazQ leaves, within 4 days of treatment): visible accumulation of anthocyanin pigments

CC/C=C\CC1C(=O)CCC1CC(=O)OC (stereo not shown) [MeJA, methyljasmonate]
sensitivity of jaz decuple mutant (jazD) to jasmonate ([3]; jazD seedlings, 0, 5 or 25 μM MeJA, 8-day-old): highly sensitive
growth of roots in the presence of MeJA ([3]; jazD seedlings, 5 μM MeJA): effectively arrested
root length in the presence of MeJA ([3]; jazU seedlings versus jazD, very low concentrations (e.g., 1 μM) of MeJA): even shorter than jazD

NC1(C(=O)O)CC1 [ACC, 1-aminocyclopropane-1-carboxylic acid]
stimulation of hook curvature in response to ACC [4]: reduced in jazD but not jazQ seedlings

OC[C@H]1O[C@@](CO)(O[C@H]2O[C@H](CO)[C@@H](O)[C@H](O)[C@H]2O)[C@@H](O)[C@@H]1O [sucrose]
effect of exogenous sucrose on biomass ([5]; all genotypes tested (WT, jazQ, jazD), 16-day-old seedlings on agar medium): promotes increased biomass
effect of exogenous sucrose on root growth ([5]; jazD in comparison with wild type and jazQ, 11-day-old seedlings, 23 mM sucrose): enhanced the root growth of jazD
stimulatory effect of sucrose on growth of shoots ([5]; jazD shoots compared with wild type and jazQ): statistically greater than that of wild type and jazQ
